≈ marks a conversion by molar mass, not a printed value. A value given as a limit tells only on which side of the number the result lay.

Data on 20 compounds can be found in ChEMBL document CHEMBL5126551, “Spiral molecules with antimalarial activities: A review” (Eur J Med Chem, 2022).

Series [1] relates to Plasmodium berghei. As to the kind of experiment: Antiplasmodial activity against luciferase expressing hepatic stage Plasmodium berghei sporozoites infected in human Huh-7 cells assessed as inhibition of parasite infection preincubated with cells for 1 hrs followed by parasite infection and measured after 48 hrs by bioluminescence assay. It counts as functional, organism-based.

Series [2] has as its system Plasmodium falciparum. As to the kind of experiment: Antimalarial activity against Plasmodium falciparum K1 assessed as inhibition of parasite growth incubated for 72 hrs by DAPI-staining based microscopic analysis. It counts as functional, organism-based. The settings on record: K1, 72 h.
Series [3] deals with Plasmodium falciparum. As to the kind of experiment: Antimalarial activity against Plasmodium falciparum NF54 assessed as inhibition of parasite growth incubated for 72 hrs by DAPI-staining based microscopic analysis. The settings on record: NF54, 72 h. In kind it is functional, organism-based.
The subject of series [4] is Plasmodium falciparum. As to the kind of experiment: Antimalarial activity against chloroquine and quinine sensitive Plasmodium falciparum assessed as inhibition of parasite growth. It counts as functional, organism-based.
Series [5] deals with Plasmodium falciparum. Kind of series: Antimalarial activity against Plasmodium falciparum Cam3.I^R539T assessed as reduction in parasite survival at 88 nM measured after 6 hrs relative to control. In kind it is functional.
The test system of series [6] is Plasmodium falciparum. Kind of series: Antimalarial activity against Plasmodium falciparum Cam3.I^R539T assessed as reduction in parasite survival at 700 nM measured after 6 hrs relative to control. In kind it is functional.
In series [7] the test system is Plasmodium falciparum. As to the kind of experiment: Antimalarial activity against Plasmodium falciparum Cam3.I^R539T assessed as reduction in parasite survival at 175 nM measured after 6 hrs relative to control. It counts as functional.
In series [8] the test system is Plasmodium falciparum. Kind of series: Antimalarial activity against Plasmodium falciparum Cam3.I^R539T assessed as reduction in parasite survival at 350 nM measured after 6 hrs relative to control. It counts as functional.
In series [9] the test system is Plasmodium falciparum. Kind of series: Antimalarial activity against Plasmodium falciparum Cam3.I^R539T assessed as reduction in parasite survival at 49 nM measured after 6 hrs relative to control. In kind it is functional.
The subject of series [10] is Plasmodium falciparum. Kind of series: Antimalarial activity against chloroquine-sensitive Plasmodium falciparum 3D7 infected in human erythrocytes assessed as inhibition of parasite growth incubated for 48 hrs by parasite lactate dehydrogenase based colorimetric assay. It counts as functional, organism-based. The settings on record: 3D7, 48 h.
Series [11] relates to Plasmodium falciparum. Kind of series: Antimalarial activity against chloroquine-resistant Plasmodium falciparum FCR3 infected in human erythrocytes assessed as inhibition of parasite growth incubated for 48 hrs by [3H]-hypoxanthine incorporation assay. It counts as functional, organism-based.
Series [12] relates to Plasmodium falciparum. Kind of series: Antimalarial activity against Plasmodium falciparum 3D7 infected in human plasma assessed as inhibition of parasite growth by Giema staining based assay. It counts as functional, organism-based. The settings on record: 3D7, Plasma.
In series [13] the test system is Plasmodium falciparum. As to the kind of experiment: Antimalarial activity against chloroquine and antifolate resistant Plasmodium falciparum K1 infected in human erythrocyte preincubated for 24 hrs followed by hypoxanthine addition and measured after 18 to 20 hrs by [3H]-hypoxanthine incorporation assay. In kind it is functional, organism-based.
Series [14] relates to Plasmodium falciparum. As to the kind of experiment: Antimalarial activity against chloroquine-resistant Plasmodium falciparum K14 infected in human red blood cells assessed as inhibition of parasite growth incubated for 42 hrs by [3H]-hypoxanthine incorporation assay. In kind it is functional, organism-based, Red blood cell. The following applies: K14, Erythrocyte.
For series [15], the system named is Plasmodium falciparum. Kind of series: Antimalarial activity against chloroquine resistant Plasmodium falciparum K1 assessed as inhibition of parasite growth by [3H]-hypoxanthine incorporation assay. It counts as functional, organism-based.
Series [16] deals with Plasmodium falciparum. Kind of series: Antimalarial activity against chloroquine sensitive Plasmodium falciparum NF54 assessed as inhibition of parasite growth by [3H]-hypoxanthine incorporation assay. It counts as functional, organism-based.
Series [17] concerns Plasmodium falciparum. Kind of series: Antimalarial activity against chloroquine-resistant Plasmodium falciparum K1 infected in human erythrocytes incubated for 72 hrs by parasite lactate dehydrogenase assay. In kind it is functional, organism-based. The settings on record: K1, Erythrocyte.
Series [18] in a line: Cytotoxicity against human MRC5 cells assessed as inhibition of cell growth incubated for 7 days by MTT assay. It counts as toxicity, cell-based. For orientation: Formazan colour is commonly taken as a measure of viable cells.

The IC50 is the concentration needed to halve the response being measured. With `CC(C)(C)OC(=O)C1C(c2ccccc2)(c2ccccc2)C12C(=O)N1[C@@H](C(=O)OC(c3ccccc3)c3ccccc3)C(C)(C)S[C@@H]12` (some centres not stated), in series [1], the IC50 was found to be 2670 nM.

For the compound `C=CCOc1c2n(c3ccccc13)C=CC[C@@]21C(=O)c2ccccc2N1CC=C`, the IC50 in series [2] and in series [3] was at least 5000 nM each time.

With `CC(C)OC(=O)C1=C2N=C(c3cccnc3)NN2C2=C(C(=O)CCC2)C12C(=O)Nc1ccc(F)cc12` (configuration not stated), the IC50 in series [4] was 454 nM.

As for `CC1(C)CC(O)(Cc2ccc(C3CCC4(CC3)OOC3(O4)C4CC5CC(C4)CC3C5)cc2)CC(C)(C)N1` (configuration not stated), the Activity stood at 0.17% in [5]; 0% in series [6]; 0.12% in [7]; 0% in series [8]; 1.29% in series [9].

Consider `COc1cc([C@@H]2c3cc(Br)ccc3NC3(C(=O)Nc4ccccc43)[C@H]2C)ccc1O` (some centres not stated), for which the values for the IC50 in series [10] and in series [11] were 1310 nM and 1520 nM, respectively.

As to `CCOC(=O)C1=C2N=C(c3cccnc3)NN2C2=C(C(=O)CCC2)C12C(=O)Nc1ccccc12` (configuration not stated), the IC50 in [4] came to 422 nM.

Take `CC1=CC(=O)CC(C)(C)[C@@]12C=C[C@H](C)O2`: the IC50 in [12] is 0.027 µM.

Take `C=CCN1C(=O)[C@@]2(c3ccccc31)C(c1ccccc1)C=CN1N3C=CC=CC3C(=O)[C@@]12C/C=C/c1ccccc1` (some centres not stated): the IC50 in series [13] amounted to 8.3 µM.

For the compound `C=CCN1C(=O)[C@]2(CC=CN3c4ccccc4C(=O)[C@@]32CC=C)c2ccccc21`, the IC50 in [13] is 9.3 µM.

As to `O=C1OC[C@H](CN2C3=C4C(=O)c5ccccc5C4C[C@@H]4CO[C@@]3(O4)c3ccccc32)O1` (some centres not stated), the IC50 in series [2] and in series [3] was 9 nM throughout.

Regarding `CC(=O)O[C@@H]1[C@H](C)[C@@H](C)O[C@@]2([C@@H]1C)[C@@H](C)C=C(C)C(=O)[C@@H]2C`, the IC50 in [12] was 16 µM.

Turning to `c1cc(C2CCC3(CC2)OOC2(O3)C3CC4CC(C3)CC2C4)ccc1OCCC1CCNCC1` (configuration not stated), the Activity in series [5] is listed as 0%; in [6] it was 0%; in series [7], 0%; in series [8] it was 0%; in series [9] it was 0.76%.

Turning to `CCN(CC)c1ccc(N2C(=O)C(Oc3ccccc3)C23c2ccccc2-c2ccccc23)cc1` (configuration not stated), the IC50 in [14] was determined as 6.4 µM.

`CCOC(=O)C1=C2N=C(c3cccnc3)NN2C2=C(C(=O)CCC2)C12C(=O)Nc1ccc(F)cc12` (configuration not stated): the IC50 in [4] was 122 nM.

For `NCC1CCC2(CC1)OOC1(O2)C2CC3CC(C2)CC1C3` (configuration not stated), the figures for the IC50 in [15] and in series [16] were 0.39 ng/mL (≈ 1.33 nM) and 0.42 ng/mL (≈ 1.43 nM), respectively.

In the case of `CC(C)(N)CNC(=O)CC1CCC2(CC1)OOC1(O2)C2CC3CC(C2)CC1C3` (configuration not stated), the IC50 in series [15] stood at 0.57 ng/mL (≈ 1.45 nM); in series [16] it was 0.54 ng/mL (≈ 1.38 nM).

On to `COc1cc2c(cc1O)CCN1CC=C3C=C[C@H](OC)C[C@]321` [ERYSODINE], for which the IC50 in series [17] came to 6.5 µM. The IC50 at 7 days in [18] was over 64 µM.

In the case of `COc1cc2c(cc1OC)[C@]13C[C@@H](OC)C=CC1=CCN3CC2` [ERYSOTRINE], the midpoint of inhibition in [17], the IC50, lay at 20.6 µM. Also, in series [18], the IC50 at 7 days was over 64 µM.

With `COc1cc2c(cc1O)[C@]13C[C@@H](OC)C=CC1=CCN3CC2` [ERYSOVINE], the IC50 in [17] came out at 4.1 µM. Moreover, the IC50 at 7 days in series [18] was over 64 µM.

In turn, `CO[C@H]1C=CC2=CCN3CCc4cc5c(cc4[C@]23C1)OCO5` [ERYTHRALINE] registered an IC50 in series [17] of 7.3 µM. In [18], the IC50 at 7 days is over 64 µM.
